Laboratory results: patent US10730849B2, “Benzo[b]thiophene compounds as STING agonists” (MERCK SHARP & DOHME CORP., priority 2016, dated 2020)

What was measured:
full-length HAQ STING = full-length HAQ STING (Homo sapiens (Human), UniProt Q86WV6, G230A/H232R/R293Q/R71H); experiment: 3H-cGAMP filtration binding assay (HAQ STING); settings: competition with tritiated cGAMP, HAQ STING membrane
Excerpt: The ability of compounds to bind STING is quantified by the ability to compete with tritiated cGAMP ligand for human STING receptor membrane using a radioactive filter-binding assay. The binding assay employs STING receptor obtained from Hi-Five cell membranes overexpressing full-length HAQ STING prepared in-house and tritiated cGAMP ligand also purified in-house.
(§1) The ability of compounds to bind STING is quantified by their ability to compete with tritiated cGAMP ligand for human STING receptor membrane using a radioactive filter-binding assay. The binding assay employs STING receptor obtained from Trichoplusia ni cell membranes (T. ni; Expression Systems, cat #94-002F, www.exressionsystems.com) overexpressing full-length HAQ STING and tritiated cGAMP ligand.
The basic HAQ STING filtration assay protocol is as follows:
Compound and membrane then preincubated for 60 min at RT to allow compound binding to equilibrate. Following equilibration, 8 nM of [^3H]c-GAMP ligand was prepared by diluting into assay buffer, and 50 uL of this working stock was then manually added to each well of the assay plate. […] The filter plates were then dried at 55° C. for 30 min using a pressurized oven before 30 uL of ULTIMA GOLD F scintillate was added to each well. Tritium levels for each reaction well were then measured using a PerkinElmer TopCount plate reader.
(§2) After normalization to controls, the percent activity for each compound concentration was calculated by measuring the amount of remaining radioactivity. The plot of percent activity versus the log of compound concentration was fit with a 4-parameter dose response equation to calculate EC50 values.

full-length WT STING = full-length WT STING (Homo sapiens (Human), UniProt Q86WV6, H232R); experiment: 3H-cGAMP filtration binding assay (WT STING); settings: for EC50: competition with tritiated cGAMP, WT STING membrane
Excerpt: as §1, with “www.expressionsystems.com)” for “www.exressionsystems.com)”, “WT” for “HAQ”
The basic WT STING filtration assay protocol is as follows:
The filter plates were then dried at 55° C. for 30 min using a pressurized VWR oven before 30 uL of ULTIMA GOLD F scintillate was added to each well. Tritium levels for each reaction well were then measured using a PerkinElmer TopCount plate reader.
as §2

THP1 cells = experiment: IFN-β secretion in THP1 cell culture (5 h); format: cell-based, human; settings: relative to 30 uM cGAMP
Experimental: The ability of compounds to stimulate the secretion of interferon-beta from THP1 cells was measured using a human IFN-3 AlphaLISA kit (Perkin Elmer, Cat. No. AL265F). The basic protocol is as follows:
The cell viability and count was ascertained using a Beckman Coulter V-Cell XR cell counter. The cells suspension was centrifuged at 200×g for 5 min at RT. Cells were resuspended to a density of 0.8×10^6/mL in 37° C. assay medium. Subsequent liquid transfers were performed using either a Matrix electronic multichannel pipette or an Agilent Bravo Automated Liquid Handling Platform.
The assay was started by dispensing 40 μL of the previously prepared cell suspension into the wells of the plate containing compounds. After 5 h incubation at 37° C., 5% CO2 in a humidified atmosphere, the plate of cells and compounds was centrifuged at 200×g for 5 min at RT. […] To these supernatant-containing wells was added 10 μL of 5× Anti-Analyte Acceptor beads ([…] of AlphaLISA HiBlock Buffer) and incubated for 30 min at RT while shaking on an orbital plate shaker. To each well was added 10 μL of 5× Biotinylated Antibody Anti-analyte (5 nM in AlphaLISA HiBlock Buffer) and incubated on an orbital plate shaker for 60 min at RT or overnight at 4° C. To each well was added 25 μL of 2× SA-Donor beads ([…] in AlphaLISA HiBlock Buffer) and incubated for 30-45 min at RT in the dark while shaking on an orbital plate shaker. The plate was then read on a Perkin Elmer Envision (λex=680 nm, […]). The percent effect of the AlphaLISA signal at each compound concentration was calculated based on 30 uM cGAMP positive controls and 0.3% DMSO negative controls. The plot of percent effect versus the log of compound concentration was fit with a 4-parameter concentration response equation to calculate EC50 values.
Compounds of the disclosure were evaluated for IFN-3 secretion in THP1 cell culture as described above.

Chain of full-length HAQ STING (Q86WV6 other isoform, or with tags, fused parts or gaps, stated change not applied): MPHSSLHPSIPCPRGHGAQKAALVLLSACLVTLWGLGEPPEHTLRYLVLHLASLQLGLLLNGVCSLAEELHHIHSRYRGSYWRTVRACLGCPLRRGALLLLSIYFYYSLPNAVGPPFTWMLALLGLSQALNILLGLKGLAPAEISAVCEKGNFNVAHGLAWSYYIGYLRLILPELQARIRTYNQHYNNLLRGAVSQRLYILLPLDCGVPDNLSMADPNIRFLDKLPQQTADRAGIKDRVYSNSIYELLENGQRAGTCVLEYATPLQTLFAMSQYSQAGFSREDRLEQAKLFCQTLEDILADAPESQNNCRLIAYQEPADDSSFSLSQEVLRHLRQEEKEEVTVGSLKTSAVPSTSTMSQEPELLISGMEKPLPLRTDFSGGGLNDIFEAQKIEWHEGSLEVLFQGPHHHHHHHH
Chain of full-length WT STING (Q86WV6 other isoform, or with tags, fused parts or gaps H232R (already in the parent)): as the sequence (Q86WV6 other isoform, or with tags, fused parts or gaps, stated change not applied) above, with H71R, A230G, Q293R counted along it

Compound | EC50 (full-length HAQ STING) | EC50 (full-length WT STING) | inhibition at 20 µM (full-length WT STING; WT STING, compound at 20 uM) | % Inh @ 20 uM (full-length WT STING; WT STING, compound at 20 uM) | % Effect at 30 μM relative to 2’3’-cGAMP (THP1 cells)
COc1cc2cc(C(=O)CC(C(=O)O)C(C)C)sc2cc1OC (stereo not drawn) [Example 2, 4-(5,6-Dimethoxybenzo[b]thiophen-2-yl)-2-isopropyl-4-oxobutanoic acid] | 9.59 µM | 11.2 µM |  |  | 149%
COc1cc2cc(C(=O)CC(C(=O)O)C3CC3)sc2cc1OC (stereo not drawn) [Example 3, 2-Cyclopropyl-4-(5,6-dimethoxybenzo[b]thiophen-2-yl)-4-oxobutanoic acid] | 10.6 µM |  | 41% |  | 59%
COc1cc2sc(C(=O)[C@H]3C[C@H]3C(=O)O)cc2c(F)c1OC [Example 51, (1R,2S)-2-(4-fluoro-5,6-dimethoxybenzo[b]thiophene-2-carbonyl)cyclopropane-1-carboxylic acid] | 17.8 µM |  | 3% |  | 31%
COc1cc2sc(C(=O)CCC(=O)O)cc2cc1Cl [Example 7, 4-(5-Chloro-6-methoxybenzo[b]thiophen-2-yl)-4-oxobutanoic acid] | 9.34 µM |  | 20% |  | 290%
COc1cc2sc(C(=O)CCC(=O)O)c(Cl)c2cc1OC [Example 27, 4-(3-chloro-5,6-dimethoxybenzo[b]thiophen-2-yl)-4-oxobutanoic acid] | 13.2 µM |  | 19% |  | 14%
(S)-4-(5,6-dimethylbenzo [b]thiophen-2-y1)- 2-methyl-4- oxobutanoic acid [Example 31] | 5.94 µM |  |  | 10% Inh @ 20 μM | 24%
CNc1cc2cc(C(=O)CCC(=O)O)sc2cc1OC [Example 10, 4-(6-Methoxy-5-(methylamino)benzo[b]thiophen-2-yl)-4-oxobutanoic acid] | 14 µM |  | 31% |  | 182%
COc1cc2sc(C(=O)CCC(=O)O)cc2cc1Br [Example 19, 4-(5-Bromo-6-methoxybenzo[b]thiophene-2-yl)-4-oxobutanoic acid] | 9.7 µM |  | 30% |  | 153%

Stronger by EC50 (full-length HAQ STING), values ahead:

EC50 (full-length HAQ STING) | EC50 (full-length WT STING) | inhibition at 20 µM (full-length WT STING; WT STING, compound at 20 uM) | % Inh @ 20 uM (full-length WT STING; WT STING, compound at 20 uM) | Compound | % Effect at 30 μM relative to 2’3’-cGAMP (THP1 cells)
1.95 µM | 9.26 µM |  |  | COc1cc2sc(C(=O)C[C@H](C)C(=O)O)cc2cc1Cl [Example 28, (S)-4-(5-chloro-6-methoxybenzo[b]thiophen-2-yl)-2-methyl-4-oxobutanoic acid] | 86%
3.41 µM | 5.17 µM |  |  | CCC(CC(=O)c1cc2cc(OC)c(OC)cc2s1)C(=O)O (stereo not drawn) [Example 1, 4-(5,6-dimethoxybenzo[b]thiophen-2-yl)-2-ethyl-4-oxobutanoic acid] | 144%
2.64 µM | 8.54 µM |  |  | COc1cc2sc(C(=O)C[C@H](C)C(=O)O)cc2cc1Br [Example 24, (S)-4-(5-Bromo-6-methoxybenzo[b]thiophen-2-yl)-2-methyl-4-oxobutanoic acid] | 214%
0.89 µM | 2.14 µM |  |  | CCC(CC(=O)c1cc2c(F)c(OC)c(OC)cc2s1)C(=O)O (stereo not drawn) [Example 50, 2-ethyl-4-(4-fluoro-5,6-dimethoxybenzo[b]thiophen-2-yl)-4-oxobutanoic acid] | 115%
